Test results taken from patent US20230129359A1, “MUSCARINIC RECEPTOR 4 ANTAGONISTS AND METHODS OF USE” (Neurocrine Biosciences, Inc., priority 2020, published 2023).

Experiments:
[1] = target: T1, Human muscarinic 4 receptor (CHRM4) (Homo sapiens, UniProt P08173); test: Fluorescence-based functional calcium assay, antagonism of acetylcholine response in CHO-K1 cells with Gα16; format: cell-based; details: inhibition of the acetylcholine response
T1 construct: host or cells: CHO-K1
T1 sequence (P08173 1-479): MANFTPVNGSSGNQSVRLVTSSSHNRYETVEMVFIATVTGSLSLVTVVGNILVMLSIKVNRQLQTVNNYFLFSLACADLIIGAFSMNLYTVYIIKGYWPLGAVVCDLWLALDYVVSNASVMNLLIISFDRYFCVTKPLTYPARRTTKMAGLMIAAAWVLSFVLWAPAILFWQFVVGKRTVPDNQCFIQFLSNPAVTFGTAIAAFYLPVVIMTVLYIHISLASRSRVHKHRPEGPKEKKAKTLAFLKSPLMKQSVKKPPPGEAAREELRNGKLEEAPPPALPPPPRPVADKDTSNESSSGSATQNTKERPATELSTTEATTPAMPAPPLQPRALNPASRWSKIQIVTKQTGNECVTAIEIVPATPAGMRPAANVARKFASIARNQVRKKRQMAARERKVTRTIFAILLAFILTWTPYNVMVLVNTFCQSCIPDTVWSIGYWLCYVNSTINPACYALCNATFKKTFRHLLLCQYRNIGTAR
Method: Functional antagonism of acetylcholine responses was evaluated using a fluorescence-based functional calcium assay. Acetylcholine binding to the muscarinic receptors activates G-proteins. Human muscarinic 4 receptor (CHRM4) was stably expressed in CHO-K1 cells and a promiscuous Gα16 construct is co-transfected. This cell line was commercially available through PerkinElmer (product number ES-213-A). Following ligand binding, activation of the Ga16 subunit induces the release of calcium from the endoplasmic reticulum. Prior to ligand screening, the receptor-expressing cells were loaded with a fluorescent calcium indicator, FLIPR Calcium 6 (Molecular Devices). Antagonist activity of the compounds was determined as the EC50 for inhibition of the acetylcholine response. The assay buffer used was a 1:1 solution of buffer (1× Hank's balanced salt solution plus 20 mM HEPES buffer, pH 7.4) and cell medium (Ham's F-12, 10% FBS, 0.4 mg/mL Geneticin, 0.25 mg/mL Zeocin). The day before the assay, 4×10^3 cells per well were seeded into an assay plate in 25 μL of medium and allowed to incubate overnight at 37° C. and 5% CO2. The following day, 25 μL of Calcium 6 dye was added to each well and incubated for two additional hours at 37° C. and 5% CO2. The test compound (a dose-response of eleven concentrations ranging from […]) was added to the cells to a final DMSO concentration of 0.56% v/v. One hour later, acetylcholine to a final concentration of 100 nM was added by the instrument and calcium flux-dependent fluorescence measured in real time. The concentration of acetylcholine used was that which stimulates 80% of the maximal response.

human M4 receptor = target: T2, human M4 receptor (Homo sapiens, UniProt P08173); test: Radioligand ([3H]N-methylscopolamine) binding assay, membranes from CHO cells expressing human M4 receptor; details: Ki against human M4 receptor; membranes from CHO cells; tritiated N-methylscopolamine 1.5 nM; read-out: K
T2 construct: expressed in transfected cells; host or cells: CHO cells
T2 sequence (P08173 1-479): T1 sequence (P08173 1-479)
How it was run: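 Ki values derive from displacement of tritiated N-methylscopolamine (1.5 nM) from human M4 receptor in CHO membranes. Membranes, radioligand and twelve-point compound series were incubated together at 37 °C for 90 minutes in pH 7.4 HEPES/NaCl/MgCl2/EDTA buffer. Rapid vacuum filtration over polyethylenimine-pretreated filters was followed by radioactivity counting.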

IC50 [1] | Ki (human M4 receptor) | SMILES
< 10 nM | < 10 nM | C[C@@H]1CN(c2ncc(C(F)(F)F)cn2)C[C@H](C)N1C(=O)OC1CC2(C1)CN(Cc1ccccc1)C2 [Compound 147, 2-Benzyl-2-azaspiro[3.3]heptan-6-yl (2R,6S)-2,6-dimethyl-4-[5-(trifluoromethyl)pyrimidin-2-yl]piperazine-1-carboxylate]
< 10 nM | 10 to 100 nM | C[C@@H]1CN(c2cnc(C(F)(F)F)cn2)[C@@H](C)CN1C(=O)OC1CC2(C1)CN(Cc1ccccc1)C2 [Compound 106, 2-benzyl-2-azaspiro[3.3]heptan-6-yl (2R,5S)-2,5-dimethyl-4-[5-(trifluoromethyl)pyrazin-2-yl]piperazine-1-carboxylate]
< 10 nM | 10 to 100 nM | C[C@@H]1CN(c2cnc(C(F)(F)F)cn2)C[C@H](C)N1C(=O)OC1CC2(C1)CN(Cc1ccccc1)C2 [Compound 141, 2-benzyl-2-azaspiro[3.3]heptan-6-yl (2R,6S)-2,6-dimethyl-4-[5-(trifluoromethyl)pyrazin-2-yl]piperazine-1-carboxylate]
< 10 nM | < 10 nM | C[C@@H]1CN(c2ncc(C(F)(F)F)cn2)C[C@H](C)N1C(=O)NC1CC2(C1)CN(Cc1ccccc1)C2 [Compound 96, (2R,6S)—N-{2-Benzyl-2-azaspiro[3.3]heptan-6-yl}-2,6-dimethyl-4-[5-(trifluoromethyl)pyrimidin-2-yl]piperazine-1-carboxamide]
